Laboratory results reported in patent US6596497B1, “Screening of antiviral compounds targeted to the HIV-1 gp41 core structure” (New York Blood Center, Inc., priority 1999, dated 2003).
≈ marks a conversion by molar mass, not a printed value. Like-named read-outs stand apart in the source and are kept apart here.

Assays:
[1] = biological target: T1, N-36/C-34 complex (HIV-1 gp41 core) (Human immunodeficiency virus type 1 group M subtype B, UniProt P04578); experiment: biochemical; format: binding
T1 construct: Peptides derived from the NHR and CHR regions of gp41, designated N- and C-peptides; made in house; host or cells: chemical synthesis (solid-phase FMOC)
T1 sequence (P04578 546-581, one chain of several): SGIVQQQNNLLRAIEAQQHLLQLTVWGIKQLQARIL
Protocol: For detection of peptide complexes, a direct and a sandwich ELISA were used. In the direct ELISA, the N- and C-peptides were mixed at equimolar concentration in PBS and diluted in coating buffer. Then, the peptide complexes were directly coated onto the wells of microplate. In the sandwich ELISA, the plate was coated with IgG (10 μg/ml) purified from rabbit antisera directed against N36(L6)C34, followed by the addition of the peptide complexes formed by mixing N- and C-peptides in PBS in equimolar concentrations. To screen for antiviral agents, compounds were pre-incubated with N-peptides at 37° C. for 30 minutes before mixing with the C-peptides. The binding of the peptide complexes to the antibodies was then detected as described above.
The percentage of inhibition by the compounds of the binding of NC-1 to the peptide complexes was calculated as described in Jiang, S., K. Lin, and A. R. Neurath, 1991, “Enhancement of human immunodeficiency virus type-1 (HIV-1) infection by antisera to peptides from the envelope glycoproteins gp120/gp41”, J. Exp. Med., 174, 1557-1563.
A sandwich ELISA was established to screen for compounds that interfere with the formation of the N-36/C-34 complex. N-36 (2 μM) was preincubated with compounds at graded concentrations at 37° C. for 30 minutes, followed by the addition of C-34 (2 μM). After incubation at 37° C. for 30 minutes, the mixture was added to wells of a 96-well polystyrene plate (Immulon I, Dynatech Laboratories, Inc., Chantilly, Va.) which were precoated with IgG (10 μg/ml) purified from rabbit antisera directed against N36(L6)C34. […] Absorbance at 450 nm (A450) was read using an ELISA reader (Dynatech Laboratories, Inc., Chantilly, Va.). The percentage of inhibition by the compounds of the binding of NC-1 to the peptide complexes was calculated as described in Jiang S., K. Lin, and A. R. Neurath, 1991, “Enhancement of human immunodeficiency virus type-1 (HIV-1) infection by antisera to peptides from the envelope glycoproteins gp120/gp41”, J. Exp. Med., 174, 1557-1563. The concentration for 50% inhibition (IC50) was calculated using a computer program, designated Calcusyn (Chou, T.-C., 1991, “The median-effect principle and the combination index for quantitation of synergism and antagonism. In Synergism and Antagonism in Chemotherapy”, T.-C. Chou and D. C. Rideout, editors, Academic Press, San Diego, 61-102).

[2] = test system: H9/HIV-1IIIB cells and MT-2 cells; experiment: cells; format: cell-based; conditions: for IC50: Human immunodeficiency virus 1, MT2, 2 h, read-out: IC50 ± SD Cell fusion
Protocol: A dye transfer assay was used for detection of HIV-1-mediated cell fusion as described in Jiang et al., Nature, 365, 113 (1993). H9/HIV-1IIIB cells were labeled with a fluorescent reagent, 2′,7′-bis-(2-carboxyethyl)-5-and-6-carboxyfluorescein acetoxyethyl ester (BCECF-AM), (Molecular Probes, Inc., Eugene, Oreg.) and incubated with MT-2 cells (ratio=1:10) in a 96-well plate at 37° C. for 2 hours in the presence or absence of peptides or compounds tested. The fused and unfused BCECF-labeled HIV-1 infected cells were counted under an inverted fluorescence microscope (Zeiss, Germany) with an eyepiece micrometer discs. The percentage of inhibition of cell fusion was calculated as described in Jiang et al., 1993, Nature, 365, 113.
A dye transfer assay was used for detection of HIV-1 mediated cell fusion as described in Jiang, S., K. Lin, N. Strick, and A. R. Neurath, 1993, Inhibition of HIV-1 infection by a fusion domain binding peptide from HIV-1 envelope glycoprotein gp41, Biochem. Biophys. Res. Commun., 195, 533-538.
H9/HIV-1IIIB cells were labeled with a fluorescent reagent, 2′,7′-bis-(2-carboxyethyl)-5-and-6-carboxyfluorescein acetoxyethyl ester (BCECF-AM) (Molecular Probes, Inc., Eugene, Oreg.) and then incubated with MT-2 cells (ratio=1:10) in 96-well plates at 37° C. for 2 hours in the presence or absence of the compounds tested. The fused and unfused BCECF-labeled HIV-1 infected cells were counted under an inverted fluorescence microscope (Zeiss, Germany) with an eyepiece micrometer disc. The percentage of inhibition of cell fusion and the IC50 values were calculated as described in Jiang et al., (1993), Biochem. Biophys. Res. Commun., 195, 533-538.

[3] = In vitro cytotoxicity, XTT; format: cell-based; conditions: human
Protocol: The in vitro cytotoxicity for MT-2 cells of the compounds was determined in 96-well plates using the XTT dye to measure cell viability in the absence of virus. Ten μl of 5% TRITON X-100 were added to the wells corresponding to positive controls (“P”) and 10 μl medium was added to wells corresponding to negative controls (“N”). The percent cytotoxicity was calculated using the following formula: % cytotoxicity=[(E−N)/(P−N)]×100%, wherein “E” represents experimental data in the presence of compounds. The concentration corresponding to 50% cytotoxicity (CC50) for MT-2 cells was calculated using the Calcusyn computer program. The selectivity index (S.I.=CC50/IC50) for each compound was calculated.

HIV-1IIIB = experiment: HIV-1-mediated cytopathic effect (CPE), XTT; format: cell-based; conditions: for selectivity ratio at 6 days: human, read-out: Selective Index (S.I.) = CC50/IC50 for CPE
Protocol: The inhibitory activity of the compounds was determined by a calorimetric method based on protection of cells against HIV-1-mediated CPE, as described in Jiang et al., (1991), J. Exp. Med., 174, 1557-1563. 1×10^4 MT-2 cells in 96-well plates were infected with diluted HIV-1IIIB in 200 μl RPMI 1640 medium containing 10% FBS in the presence of compounds at graded concentrations. After 1 hour, 24 hours and 4 days, half of the culture media were changed. On the sixth day post infection, an indicator, XTT tetrazolium dye (1 mg/ml; 50 μl/well; PolySciences, Inc., Warrington, Pa.), was added to the cells. After 4 hours, the soluble intracellular formazan was determined calorimetrically at 450 nm. The percent of inhibition of CPE and the IC50 values were calculated as described above.

[4] = 50% cytotoxic concentration, MT-2 cells, no virus, read-out: CC50 ± SD
[5] = Human immunodeficiency virus 1, MT2, read-out: IC50 ± SD CPE
[6] = Human immunodeficiency virus 1, MT2, MT-2 cells, sixth day post infection, read-out: IC50 ± SD CPE

Compound | IC50 [1] [µM] | IC50 [2] [µg/mL] | CC50 [3, 4] [µg/mL] | IC50 (HIV-1IIIB; [5]) [µg/mL] | selectivity ratio at 6 days (HIV-1IIIB; MT-2 cells) | Inhibition of NC-1 detectable complex formation by N-36 and C-34 (in words) ([1]; compounds at 10 μg/ml, FIG. 13) | Inhibitory activity on complex formation by N-36 and C-34 (in words) ([1]; no concentration stated) | Inhibition of HIV-1-mediated cell fusion (in words) ([2]; compounds at 10 μg/ml, FIG. 13) | CC50 [3] [µg/mL] | IC50 (HIV-1IIIB; [6]) [µg/mL]
Cc1ccc(N(C(=O)Nc2ccccc2)C(C)c2nc3ccccc3c(=O)[nH]2)c(C)c1 (stereo not shown) [ADS-J11] | > 242 | > 100 | 40.8 ± 1.67 (≈ 98.8 µM) | > 100 | ≤ 1 | – | – | – | – | –
C/C(=N/OC(=O)NS(=O)(=O)c1ccc(C)cc1)c1cc2ccccc2oc1=O [ADS-J6] | > 250 | > 100 | 286 ± 19.3 (≈ 714 µM) | > 100 | ≤ 1 | – | – | – | – | –
O=C(O)c1ccc(-c2c3nc(c(-c4ccc(C(=O)O)cc4)c4ccc([nH]4)c(-c4ccc(C(=O)O)cc4)c4nc(c(-c5ccc(C(=O)O)cc5)c5ccc2[nH]5)C=C4)C=C3)cc1 [MTCPP, meso-tetra(4-carboxyphenyl)porphyrin, reference compound] | – | – | – | – | – | partially inhibited | some inhibitory activity | partially inhibited | – | –
Cc1ccc(N(C(=O)Nc2cccc(Cl)c2)C(C)c2nc3ccccc3c(=O)[nH]2)c(C)c1 (stereo not shown) [ADS-J12] | > 224 | > 100 | 54 ± 8.14 (≈ 121 µM) | > 100 | ≤ 1 | – | – | – | – | –
C=CC1C[N@@]2CCC1C[C@@H]2C(OC(=O)c1ccc(OC)cc1)c1ccnc2ccccc12 (stereo partly shown) [ADS-J4] | > 233 | > 100 | – | – | ≤ 1 | – | – | – | 74.1 ± 0.76 (≈ 173 µM) | > 100
O=P(CCP(c1ccccc1)c1ccccc1)(c1ccccc1)c1ccccc1 [ADS-J16] | > 241 | 52.3 ± 2.85 (≈ 126 µM) | 28.9 ± 5.97 (≈ 69.7 µM) | > 100 | ≤ 1 | – | – | – | – | –
O=C(Nc1cc([N+](=O)[O-])ccc1-c1ccc([N+](=O)[O-])cc1)c1ccc([N+](=O)[O-])cc1Cl [ADS-J9] | > 226 | > 100 | 47.2 ± 5.48 (≈ 107 µM) | > 100 | ≤ 1 | – | – | – | – | –
CCC1C[N@@]2CCC1C[C@@H]2C(OC(=O)c1ccccc1Cl)c1ccnc2ccc(OC)cc12 (stereo partly shown) [ADS-J7] | > 215 | 59.8 ± 8.69 (≈ 129 µM) | – | – | ≤ 1 | – | – | – | 41.3 ± 2.38 (≈ 88.9 µM) | > 100
O=C(Nc1ccc(Cl)c(Cl)c1)O/N=C(/c1ccccc1)c1ccc(-c2ccccc2)cc1 [ADS-J10] | > 217 | > 100 | 74.7 ± 6.04 (≈ 162 µM) | > 100 | ≤ 1 | – | – | – | – | –
